Read-outs that look alike come from different tables or passages of the source.
Legend:
BRD4-BD1 = BRD4-BD1 (Homo sapiens (Human), UniProt O60885); experiment: AlphaLisa bromodomain binding assay, BRD4-BD1
From the text: An AlphaLisa assay was used to observe bromodomain binding and measure IC50s for the compounds disclosed herein. An AlphaLisa assay is a bead-based assay used to detect interactions between bromodomains and polyacetylated histone peptides. Donor and acceptor beads bound to target and ligand are brought into proximity by this protein-protein interaction.
Equipment Required • 1. […] Plate centrifuge • 3. Plate shaker • 4. […] Single channel and multi-channel pipettes • 6. Microplate reader (Pherastar)
(§1) Stock and Final Assay Concentrations (FAC) • 1. All reference and test compounds are made at a concentration of 10 mM in DMSO. Compounds are serially diluted in DMSO and a FAC starting from 10 μM to 10 point 3 fold serial dilutions is arrived. FAC of DMSO is 1%. • 2. Enzyme stock and FAC
Biotinylated substrate (Acetylated histone H4, biotinylated substrate—cat no. AS64989-025, Anaspec) stock and FAC
• 4. Acceptor and donor beads stock and FAC
Buffers • For the enzyme and substrate dilution following buffer is used (for 50 ml) • HEPES: 50 mM 2.5 ml • NaCl: 25 mM 1.25 ml • DTT: 10 mM 0.05 ml • BSA: 0.1% 0.05 g • MilliQ water: 45.7 ml • For dilution of acceptor and donor beads AlphaLISA 5× epigenetics Buffer Perkin Elmer (Cat: AL008C) is used at 1× concentration.
Procedure • 1. […] Tap the plate gently • 3. […] Cover with plate sealer • 5. […] Incubate the plate at room temperature for 10 minutes • 7. Add 10 μl of the substrate • 8. Cover with plate sealer • 9. […] Cover with plate sealer • 14. […] Cover with plate sealer • 18.
(§2) The percent inhibition is calculated in the excel analysis template and the IC50 values are subsequently determined using a sigmoidal dose-response curve (variable slope) using GraphPad Prism® 5 software.

JAK2 = JAK2 (Homo sapiens (Human), UniProt O60674); experiment: HTRF kinase assay, JAK2; assay type: biochemical
From the text: A kinase assay with HTRF was used to observe JAK activity and calculate the IC50s of compounds disclosed herein. HTRF is an enzymatic assay used to determine the amount of phosphorylated peptide. FRET (Fluorescence Resonance Energy Transfer) is based on the transfer of energy between two fluorophores—a donor and an acceptor—when in close proximity. Molecular interactions between biomolecules can be assessed by coupling each partner with a fluorescent label and by detecting the level of energy transfer. The amount of phopshorylated peptide can be detected using a combination of a Eu 3+Cryptate labeled anti-phospho residue antibody, SA-XL665 and a biotinylated substrate. The signal is proportional to the concentration of phospho-residues.
Equipment Required • 1. […] Plate centrifuge • 3. Plate shaker • 4. […] Single channel and multi-channel pipettes • 6. Microplate reader (Pherastar)]
as §1, with “arrived. For Ruxolitinib the starting FAC is 1 μM.” for “arrived.”
• JAK-1: Invtirogen Cat: PR8767C • JAK-2: Invtirogen Cat: PR7820B • JAK-3: Invtirogen Cat: PR7507B • 3. Substrate (synthetic peptide-Biotinylated-N-terminal tag-[…] from Biopeptide) stock and FAC
• Adenosine 5′-triphosphate disodium salt hydrate: Sigma Cat: A26209 • 5. […] Buffers • Base buffer (for 50 ml)
• HTRF buffer: • 50 mM Tris-HCl, pH—7.5 • 100 mM NaCl • 0.1% BSA • 0.05% Tween20 • 0.5 mM EDTA
To a 384 well black-plate: • 1. Add 17 μL of the buffer to each well of the 384-well black plate • 2. […] Add 5 μl of the enzyme to each well of the plate • 4. Add 10 μl of the substrate and ATP mix to all the wells • 5. Cover with plate sealer • 6. […] Incubate at room temperature for 1 hour on shaker • 8. […] Add 37.5 μL of the HTRF mix to these wells. • 9. Incubate the plate at room temperature on shaker for 45 minutes. • 10.
as §2

[1] = Table 6, read-out: BRD4(1) IC50

JAK2, sequence (O60674 whole entry): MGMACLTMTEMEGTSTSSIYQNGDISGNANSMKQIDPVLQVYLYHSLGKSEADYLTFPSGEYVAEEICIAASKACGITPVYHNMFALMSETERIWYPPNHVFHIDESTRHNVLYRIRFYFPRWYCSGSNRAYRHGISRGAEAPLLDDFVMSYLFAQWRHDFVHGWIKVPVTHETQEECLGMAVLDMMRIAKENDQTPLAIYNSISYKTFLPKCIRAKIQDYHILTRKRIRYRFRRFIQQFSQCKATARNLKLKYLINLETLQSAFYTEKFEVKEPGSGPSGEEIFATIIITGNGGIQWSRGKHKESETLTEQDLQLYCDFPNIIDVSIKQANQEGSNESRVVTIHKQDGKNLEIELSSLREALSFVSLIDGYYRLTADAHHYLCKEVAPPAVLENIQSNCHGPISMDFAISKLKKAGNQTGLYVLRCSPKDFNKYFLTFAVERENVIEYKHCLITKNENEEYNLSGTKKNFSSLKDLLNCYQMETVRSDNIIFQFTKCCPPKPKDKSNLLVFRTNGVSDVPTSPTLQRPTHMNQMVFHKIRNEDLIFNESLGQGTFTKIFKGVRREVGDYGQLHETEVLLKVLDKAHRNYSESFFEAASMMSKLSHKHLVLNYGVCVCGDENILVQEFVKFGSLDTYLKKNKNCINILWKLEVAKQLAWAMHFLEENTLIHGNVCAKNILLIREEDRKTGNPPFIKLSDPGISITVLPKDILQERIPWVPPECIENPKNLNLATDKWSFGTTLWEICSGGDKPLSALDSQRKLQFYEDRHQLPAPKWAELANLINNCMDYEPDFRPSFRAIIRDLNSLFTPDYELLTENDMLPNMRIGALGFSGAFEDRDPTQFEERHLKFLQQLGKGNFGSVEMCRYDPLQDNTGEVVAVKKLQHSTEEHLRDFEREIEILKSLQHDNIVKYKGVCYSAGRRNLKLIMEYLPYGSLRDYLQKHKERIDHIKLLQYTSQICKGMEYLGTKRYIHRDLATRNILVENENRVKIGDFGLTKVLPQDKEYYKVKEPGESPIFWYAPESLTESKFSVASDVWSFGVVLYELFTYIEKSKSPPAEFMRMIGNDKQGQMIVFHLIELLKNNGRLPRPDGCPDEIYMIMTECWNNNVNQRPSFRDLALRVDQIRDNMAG

SMILES | IC50 (BRD4-BD1; [1]) | IC50 (JAK2; Table 6) | further results
CC(C)(C)S(=O)(=O)Nc1cccc(-n2ccc3cnc(Nc4ccc5c(c4)CC4CNCCN54)nc32)c1 (centres unmarked) [drawing 411] | 306 nM | 13 nM | 
Cc1cnc(Nc2ccc(N3CCN(C)CC3)cc2)nc1Nc1cccc(NS(=O)(=O)C(C)(C)C)c1 [drawing 196] | 180 nM | 10 nM | 
CC(C)(C)S(=O)(=O)Nc1cccc(-n2ccc3cnc(Nc4ccc5c(c4)CC4CNCCN54)nc32)c1 (centres unmarked) [drawing 404] | 393 nM | 18 nM | 
CC(C)(C)S(=O)(=O)Nc1cc(-n2ccc3cnc(Nc4ccc(N5CCN(S(C)(=O)=O)CC5)c(F)c4)nc32)ccc1F | 1400 nM | 400 nM | 
CN(C)C1CCN2c3ccc(Nc4ncc5ccn(-c6cccc(NS(=O)(=O)C(C)(C)C)c6)c5n4)cc3CC2C1 (centres unmarked) [drawing 445] | 105 nM | 12 nM | 
CN(C)C1CCN(c2ccc(Nc3ncc4ccn(-c5cccc(NS(=O)(=O)C(C)(C)C)c5)c4n3)cc2F)CC1 [drawing 385] | 131 nM | 3 nM | 
Cc1cnc(Nc2ccc(N3CCN(C)CC3)cc2)nc1Nc1cccc(NS(=O)(=O)C(C)(C)C)c1 [drawing 405] | 208 nM | 14 nM | 
CN1CCN2c3ccc(Nc4ncc5scc(-c6cccc(NS(=O)(=O)C(C)(C)C)c6)c5n4)cc3CC2C1 (centres unmarked) | 607 nM | 2 nM | 
Cc1cnc(Nc2ccc(N3CCN(C)CC3)cc2)nc1Nc1cccc(NS(=O)(=O)C(C)(C)C)c1 [drawing 281] | 228 nM | 10 nM | 
CN1CCN(c2ccc(Nc3nc(Nc4cccc(NS(=O)(=O)C(C)(C)C)c4)c4ncsc4n3)cc2)CC1 | 1540 nM | 10000 nM | 
CN1CCN2c3ccc(Nc4ncc5ccn(-c6cccc(NS(=O)(=O)C(C)(C)C)c6)c5n4)cc3CC2C1 (centres unmarked) | 366 nM | 14 nM | 
Cc1ccc(-n2ccc3cnc(Nc4ccc(N5CCN(C)CC5)cc4)nc32)cc1NS(=O)(=O)C1CC1 | 3060 nM | 19.7 nM | 
CN1CCN(C(=O)Cc2ccc(Nc3ncc4ccn(-c5ccc(F)c(NS(=O)(=O)C(C)(C)C)c5)c4n3)cc2)CC1 | 643 nM | 239 nM | 
O=S(=O)(Nc1cccc(-n2ccc3cnc(Nc4ccc(N5CCNCC5)cc4)nc32)c1)C1CC1 [drawing 68] |  |  | IC50 (JAK2; Table 3): 5 nM
CN(C)C1CCN(c2ccc(Nc3ncc4ccn(-c5cccc(NS(=O)(=O)C6CC6)c5)c4n3)cc2)CC1 | 866 nM | 14 nM | 
CN1CCN(c2ccc(Nc3ncc4ccn(-c5ccc(Cl)c(NS(=O)(=O)C(C)(C)C)c5)c4n3)cc2)CC1 | 481 nM | 165 nM | 
CN1CCN(c2ccc(Nc3ncc4ccn(-c5ccc6c(c5)N(S(=O)(=O)C(C)(C)C)CC6)c4n3)cc2)CC1 | 1410 nM | 32 nM | 
CN1CCN(c2ccc(Nc3ncc4ccn(-c5ccc6c(c5)CCN6S(=O)(=O)C(C)(C)C)c4n3)cc2)CC1 [drawing 71] |  |  | IC50 (JAK2; Table 4): 0.6 nM
CC(C)(C)S(=O)(=O)Nc1cccc(-n2ccc3cnc(Nc4ccc(N5CCNCC5)cc4)nc32)c1 [drawing 306] | 394 nM | 10 nM | 
O=S(=O)(Nc1cccc(-n2ccc3cnc(Nc4ccc(N5CCNCC5)cc4)nc32)c1)C1CC1 [drawing 320] | 451 nM | 6 nM | 
CN1CCC(NC(=O)c2ccc(Nc3ncc4ccn(-c5ccc(F)c(NS(=O)(=O)C(C)(C)C)c5)c4n3)cc2F)CC1 [drawing 363] | 134 nM | 130 nM | 
CC(C)(C)S(=O)(=O)Nc1cccc(Nc2nc(NC3CC4CC3CN4)nc3sccc23)c1 (centres unmarked) | 260 nM | 4170 nM | 
CN(C)C1CCN(c2ccc(Nc3ncc4ccn(-c5cccc(NS(=O)(=O)C(C)(C)C)c5)c4n3)cc2)CC1 [drawing 75] |  |  | IC50 (BRD4-BD1; Table 5, read-out: BRD4 IC50): 173 nM; IC50 (JAK2; Table 5): 7.3 nM
O=C(NC1CCNCC1)c1ccc(Nc2ncc3ccn(-c4cccc(NS(=O)(=O)C5CC5)c4)c3n2)cc1F | 1590 nM | 69 nM | 
Cc1noc(C)c1-c1cccc(-n2ccc3cnc(Nc4ccc(N5CCN(C)CC5)cc4)nc32)c1 [drawing 67] |  |  | IC50 (JAK2; Table 3): 3 nM

SMILES | IC50 (BRD4-BD1; [1]) | IC50 (JAK2; Table 6) | further results
CCC1(S(=O)(=O)Nc2cc(-n3ccc4cnc(Nc5ccc(N6CCN(C)CC6)c(F)c5)nc43)ccc2F)CC1 | 1500 nM | 103 nM | 
O=C1Cc2c(cccc2-c2ccnc(Nc3ccccc3)n2)N1 |  | 6780 nM | 
CN(c1cccc(Nc2nc(NC3CCNCC3)nc3sccc23)c1)S(=O)(=O)C(C)(C)C | 870 nM | 10000 nM | 
CC(C)(C)S(=O)(=O)Nc1cccc(-c2csc3cnc(Nc4ccc5c(c4)CC4CNCCN54)nc23)c1 (centres unmarked) | 318 nM | 5 nM | 
CN1CCN(c2ccc(Nc3ncc4cccc(-c5cccc(NS(=O)(=O)C(C)(C)C)c5)c4n3)cc2)CC1 | 3800 nM | 10 nM | 
CNCC1CCN(c2ccc(Nc3ncc4c(n3)N(c3cccc(NS(=O)(=O)C(C)(C)C)c3)CC4)cc2F)CC1 | 580 nM | 9 nM | 
CNc1nc(NC2CCNCC2)nc2c1ccn2-c1cccc(NS(=O)(=O)C(C)(C)C)c1 | 774 nM | 10000 nM | 
CN(C)C1CCN(c2ccc(Nc3ncc4ccn(-c5cccc(NS(=O)(=O)C(C)(C)C)c5)c4n3)cc2F)CC1 [drawing 401] | 377 nM | 4.4 nM | 
CN1CCC(NC(=O)c2ccc(Nc3ncc4ccn(-c5ccc(F)c(NS(=O)(=O)C6CC6)c5)c4n3)cc2)CC1 | 1130 nM | 152 nM | 
CNCCOc1ccc(Nc2ncc3ccn(-c4cccc(NS(=O)(=O)C(C)(C)C)c4)c3n2)cc1F [drawing 467] | 1300 nM | 79 nM | 
CC(C)(C)S(=O)(=O)Nc1cccc(-n2ccc3cnc(Nc4cc(F)c5c(c4)CC4CNCCN54)nc32)c1 (centres unmarked) | 300 nM | 6 nM | 
CCC1(S(=O)(=O)Nc2cc(-n3ccc4cnc(Nc5ccc(N6CCC(N(C)C)CC6)c(F)c5)nc43)ccc2F)CC1 | 963 nM | 24 nM | 
CN1CCN(c2ccc(Nc3ncc4ccn(-c5cccc(NS(=O)(=O)C6CC6)c5)c4n3)cc2)CC1 [drawing 61] |  |  | IC50 (JAK2; Table 3): 2.5 nM
CN1CCN(c2ccc(Nc3ncc4scc(-c5cccc(NS(=O)(=O)C(C)(C)C)c5)c4n3)cc2)CC1 |  |  | IC50 (JAK2; Table 3): 4.8 nM
Cc1cnc(Nc2ccc(N3CCN(C)CC3)cc2)nc1-n1ccc(C(=O)NC2CC2)c1 |  | 30 nM | 
COc1cccc(Nc2nccc(-c3cccc4c3CC(=O)N4)n2)c1 |  | 2250 nM | 
Cc1sc2c(c1C)C(c1ccc(Cl)cc1)=N[C@@H](CC(=O)OC(C)(C)C)c1nnc(C)n1-2 |  | 10000 nM | 
O=S(=O)(Nc1cccc(-n2ccc3cnc(Nc4ccc(N5CCNCC5)cc4)nc32)c1)C1CC1 [drawing 63] |  |  | IC50 (JAK2; Table 3): 2 nM
CN1CCN(c2ccc(Nc3ncc4ccn(-c5ccc(CNS(=O)(=O)C(C)(C)C)cc5)c4n3)cc2)CC1 [drawing 70] |  |  | IC50 (JAK2; Table 4): 0.18 nM
CN1CCN(c2ccc(Nc3nccc(Nc4cccc5c4CC(=O)N5)n3)cc2)CC1 |  | 387 nM | 
CN1CCN(c2ccc(Nc3ncc4ccn(-c5ccc(NS(=O)(=O)C(C)(C)C)cc5)c4n3)cc2)CC1 [drawing 69] |  |  | IC50 (JAK2; Table 4): 0.7 nM
CC(=O)N1CCN(c2ccc(Nc3ncc4ccn(-c5cccc(NS(=O)(=O)C(C)(C)C)c5)c4n3)cc2)CC1 |  | 45 nM | 
CN(C)C1CCN(c2ccc(Nc3ncc4ccn(-c5cccc(NS(=O)(=O)C(C)(C)C)c5)c4n3)cc2F)CC1 [drawing 65] |  |  | IC50 (JAK2; Table 3): 4.4 nM
CN1CCN(c2ccc(Nc3ncc4ccn(-c5cccc(NS(=O)(=O)c6ccccc6)c5)c4n3)cc2)CC1 [drawing 62] |  |  | IC50 (JAK2; Table 3): 3 nM
CN1CCN(c2ccc(Nc3ncc4ccn(-c5cccc(NS(=O)(=O)C6CC6)c5)c4n3)cc2)CC1 [drawing 64] |  |  | IC50 (JAK2; Table 3): 4.3 nM

From patent publication US11279703B2, “Fused pyrimidine compounds as BRD4 and JAK2 dual inhibitors and methods for use thereof” (APTOSE BIOSCIENCES INC., priority 2016, dated 2022)
